Patent EP3875077B1, “DOSAGE FORM PROVIDING PROLONGED RELEASE OF […] SALT” (Grünenthal GmbH, priority 2020, dated 2021)
Structures can show the parent of a compound that is named as a salt. Where two headings read alike, the source gives them in different places.

Assay: thermodynamic solubility (saturation solubility) in various media, quantified by HPLC
Type: physicochemical
Conditions: for solubility thermodynamic at 24 h: thermodynamic from solid, read-out: thermodynamic solubility, assay expressed as base
Experimental: The thermodynamic solubility of Tapentadol hydrochloride and of Tapentadol dihydrogenphosphate (mixed form, batch with fine particles) was determined as saturation solubility in various media at various pH values. The solutions were stirred for 24 hours at 25 °C and the pH values of the solutions at the start and at the end of the experiments were measured. The dissolved amount of Tapentadol was quantified by HPLC (free base of Tapentadol).

For `CC[C@@H](c1cccc(O)c1)[C@@H](C)CN(C)C` [Tapentadol hydrochloride, (-)-(1R,2R)-3-(3-dimethylamino-1-ethyl-2-methyl-propyl)-phenol], the “thermodynamic solubility, assay expressed as base” value (0.1 M HCl, 24 hours at 25 °C) was 31.2 g/100 mL, the “thermodynamic solubility, assay expressed as base” value (0.15N NaOH, 24 hours at 25 °C) was 6.6 g/100 mL and the solubility thermodynamic at 24 h (acetate buffer pH 4.5, aqueous buffer, acetate pH 4.5, 24 hours at 25 °C) was 327 mg/mL. It also gave a solubility thermodynamic at 24 h (citrate buffer pH 6.8, aqueous buffer, citrate pH 6.8, 24 hours at 25 °C) of 318 mg/mL, a solubility thermodynamic at 24 h (citrate buffer pH 7.4, aqueous buffer, citrate pH 7.4, 24 hours at 25 °C) of 319 mg/mL and a solubility thermodynamic at 24 h (fassgf or other biorelevant, SIF sp pH 6.8, 24 hours at 25 °C) of 324 mg/mL. The solubility thermodynamic at 24 h (water, 24 hours at 25 °C) was 330 mg/mL.
